According to patent US8975417B2, “Pyrazolopyrrolidine derivatives and their use in the treatment of disease” (Novartis AG, priority 2013, dated 2015):
Where two headings read alike, the source gives them in different places.

Assays:
K-562 cells = assay: Cell growth inhibition assay (CellTiter-Glo), K-562; format: cell-based, human
Method in brief: (§1)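 Dose-response over 3-fold dilutions from 10 μM; 0.1% DMSO control. Endpoint: CellTiter-Glo ATP signal, background-subtracted and day 0-corrected.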

His-Brd2(60-472) = His-Brd2(60-472) (Homo sapiens (Human), UniProt P25440); assay: TR-FRET in-vitro binding assay for BRD2; settings: biochemical
Method in brief: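 Bromodomain protein (45 nM in its addition solution) and tetra-acetylated histone H4 peptide (AcK5/8/12/16; 60 nM in its addition solution) were incubated with compounds for 35 min at 30 °C in 50 mM HEPES pH 7.5, 50 mM NaCl, 0.005% Tween20, 0.1% BSA. Eu-anti-His6 plus streptavidin-allophycocyanin detection followed, with TR-FRET read-out.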

[1] = target: His-CREBBP (1081-1197) bromodomain (Homo sapiens (Human), UniProt Q92793); assay: AlphaScreen in-vitro binding assay for CREBBP; settings: biochemical
Method in brief: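 Ni-chelate acceptor and streptavidin donor beads (45 µg/mL each, in 50 mM HEPES pH 7.5, 150 mM NaCl, 0.02% BSA) were then added for 60 min at room temperature. IC50 came from 8-point non-linear regression.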

THP-1 cells = assay: Cell growth inhibition assay (CellTiter-Glo), THP-1; format: cell-based; settings: Homo sapiens, read-out: THP-1 TGI
Method in brief: as §1

MV-4-11 cells = assay: Cell growth inhibition assay (CellTiter-Glo), MV-4-11; format: cell-based; settings: Homo sapiens, MV4-11, read-out: MV-4-11 TGI
Method in brief: as §1

[2] = Homo sapiens, K562, read-out: K-562 TGI

His-CREBBP (1081-1197) bromodomain, sequence (Q92793 1081-1197): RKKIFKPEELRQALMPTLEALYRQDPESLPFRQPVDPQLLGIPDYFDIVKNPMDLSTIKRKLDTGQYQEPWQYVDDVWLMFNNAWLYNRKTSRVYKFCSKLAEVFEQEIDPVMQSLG
His-Brd2(60-472), sequence (P25440 60-472): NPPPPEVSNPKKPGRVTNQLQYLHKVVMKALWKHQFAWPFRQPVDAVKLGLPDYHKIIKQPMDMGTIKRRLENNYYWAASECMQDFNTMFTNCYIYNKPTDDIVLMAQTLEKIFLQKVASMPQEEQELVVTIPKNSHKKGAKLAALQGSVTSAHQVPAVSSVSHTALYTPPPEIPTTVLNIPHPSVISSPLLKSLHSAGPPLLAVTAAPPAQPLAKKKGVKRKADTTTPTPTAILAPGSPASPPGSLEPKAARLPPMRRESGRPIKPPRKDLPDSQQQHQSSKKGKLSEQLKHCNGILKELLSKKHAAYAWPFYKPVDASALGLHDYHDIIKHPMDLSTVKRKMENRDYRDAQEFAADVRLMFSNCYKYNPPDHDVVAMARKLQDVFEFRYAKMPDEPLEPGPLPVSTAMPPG

Row | SMILES | IC (total growth inhibition) (K-562 cells; read-out: K-562 TGI) | IC50 (His-Brd2(60-472)) | IC50 [1] | IC (total growth inhibition) (THP-1 cells) | IC (total growth inhibition) (K-562 cells; [2]) | IC (total growth inhibition) (MV-4-11 cells)
1 | COc1ncc(-n2nc(C)c3c2C(=O)N(c2cc(C)c(=O)n(C)c2)C3c2ccc(Cl)cc2)c(OC)n1 (racemic) [Example 52, 4-(4-chlorophenyl)-1-(2,4-dimethoxypyrimidin-5-yl)-5-(1,5-dimethyl-6-oxo-1,6-dihydropyridin-3-yl)-3-methyl-4,5-dihydropyrrolo[3,4-c]pyrazol-6(1H)-one] | >10 µM | 63 nM | 5700 nM | – | – | –
2 | Cc1nn(-c2ccnn2C)c2c1C(c1ccc(Cl)cc1)N(c1cc(C)c(=O)n(C)c1)C2=O (racemic) [Example 74, 4-(4-chlorophenyl)-5-(1,5-dimethyl-6-oxo-1,6-dihydropyridin-3-yl)-3-methyl-1-(1-methyl-1H-pyrazol-5-yl)-4,5-dihydropyrrolo[3,4-c]pyrazol-6(1H)-one] | >10 µM | 71 nM | 6400 nM | – | – | –
3 | Cc1cc(N2C(=O)c3c(cnn3C3CC3)C2c2ccc(Cl)cc2)cn(C)c1=O (stereo not drawn) [Example 34, 4-(4-chlorophenyl)-1-cyclopropyl-5-(1,5-dimethyl-6-oxo-1,6-dihydropyridin-3-yl)-4,5-dihydropyrrolo[3,4-c]pyrazol-6(1H)-one] | – | 95 nM | 5200 nM | 0.321 µM | > 10 µM | 0.14 µM
4 | Cn1cc(N2C(=O)c3c(c(C(F)(F)F)nn3C3CC3)C2c2ccc(Cl)cc2)cc(Cl)c1=O (stereo not drawn) [Example 44, 5-(5-chloro-1-methyl-6-oxo-1,6-dihydropyridin-3-yl)-4-(4-chlorophenyl)-1-cyclopropyl-3-(trifluoromethyl)-4,5-dihydropyrrolo[3,4-c]pyrazol-6(1H)-one] | – | 170 nM | 3900 nM | 0.484 µM | > 10 µM | 0.329 µM
5 | Cc1nn(C2CC2)c2c1[C@@H](c1ccc(Cl)cc1)N(c1cc(C)c(=O)n(C)c1)C2=O [Example 49, (R)-4-(4-chlorophenyl)-1-cyclopropyl-5-(1,5-dimethyl-6-oxo-1,6-dihydropyridin-3-yl)-3-methyl-4,5-dihydropyrrolo[3,4-c]pyrazol-6(1H)-one] | – | 15 nM | 1300 nM | 0.0603 µM | > 10 µM | 0.0394 µM
6 | Cc1nn(C2CC2)c2c1[C@@H](c1ccc(Cl)cc1)N(c1cc(Cl)c(=O)n(C)c1)C2=O [Example 51, (R)-5-(5-chloro-1-methyl-6-oxo-1,6-dihydropyridin-3-yl)-4-(4-chlorophenyl)-1-cyclopropyl-3-methyl-4,5-dihydropyrrolo[3,4-c]pyrazol-6(1H)-one] | – | 17 nM | 1400 nM | 0.126 µM | > 10 µM | 0.0883 µM
7 | COc1ncc(-n2nc3c(c2C(C)C)C(c2ccc(Cl)cc2)N(c2ccc4onc(C)c4c2)C3=O)c(OC)n1 (stereo not drawn) [Example 54, 4-(4-chlorophenyl)-2-(2,4-dimethoxypyrimidin-5-yl)-3-isopropyl-5-(3-methylbenzo-[d]isoxazol-5-yl)-4,5-dihydropyrrolo[3,4-c]pyrazol-6(2H)-one] | – | 480 nM | > 37000 nM | 1.43 µM | > 10 µM | 0.661 µM
8 | COc1ncc(-n2nc3c(c2C)C(c2ccc(Cl)cc2)N(c2cc(Cl)c(=O)n(C)c2)C3=O)c(OC)n1 (stereo not drawn) [Example 55, 5-(5-chloro-1-methyl-6-oxo-1,6-dihydropyridin-3-yl)-4-(4-chlorophenyl)-2-(2,4-dimethoxypyrimidin-5-yl)-3-methyl-4,5-dihydropyrrolo[3,4-c]pyrazol-6(2H)-one] | – | 98 nM | 600 nM | 0.364 µM | > 10 µM | 0.123 µM
9 | CCc1nn(C2CC2)c2c1C(c1ccc(Cl)cc1)N(c1cc(C)c3nnc(C)n3c1)C2=O (stereo not drawn) [Example 70, 4-(4-chlorophenyl)-1-cyclopropyl-5-(3,8-dimethyl-[1,2,4]triazolo[4,3-a]pyridin-6-yl)-3-ethyl-4,5-dihydropyrrolo[3,4-c]pyrazol-6(1H)-one] | – | 31 nM | 11000 nM | 0.0305 µM | > 10 µM | 0.0131 µM
10 | COc1ncccc1-n1nc(C)c2c1C(=O)N(c1cc(Cl)c(=O)n(C)c1)C2c1ccc(Cl)cc1 (stereo not drawn) [Example 72, 5-(5-chloro-1-methyl-6-oxo-1,6-dihydropyridin-3-yl)-4-(4-chlorophenyl)-1-(2-methoxypyridin-3-yl)-3-methyl-4,5-dihydropyrrolo[3,4-c]pyrazol-6(1H)-one] | – | 60 nM | 8200 nM | 0.408 µM | > 10 µM | 0.164 µM
11 | Cc1cc(N2C(=O)c3nn(C)c(O)c3C2c2ccc(Cl)cc2)cn(C)c1=O (stereo not drawn) [Example 73, 4-(4-chlorophenyl)-5-(1,5-dimethyl-6-oxo-1,6-dihydropyridin-3-yl)-3-hydroxy-2-methyl-4,5-dihydropyrrolo[3,4-c]pyrazol-6(2H)-one] | – | 200 nM | 2000 nM | > 10 µM | > 10 µM | 4.4 µM
12 | CCOc1c2c(nn1C)C(=O)N(c1cc(C)c(=O)n(C)c1)C2c1ccc(Cl)cc1 (stereo not drawn) [Example 76, 4-(4-chlorophenyl)-5-(1,5-dimethyl-6-oxo-1,6-dihydropyridin-3-yl)-3-ethoxy-2-methyl-4,5-dihydropyrrolo[3,4-c]pyrazol-6(2H)-one] | – | 100 nM | 2900 nM | 0.3 µM | > 10 µM | 0.107 µM
13 | COc1c2c(nn1C)C(=O)N(c1cc(C)c(=O)n(C)c1)C2c1ccc(Cl)cc1 (stereo not drawn) [Example 77, 4-(4-chlorophenyl)-5-(1,5-dimethyl-6-oxo-1,6-dihydropyridin-3-yl)-3-methoxy-2-methyl-4,5-dihydropyrrolo[3,4-c]pyrazol-6(2H)-one] | – | – | 1900 nM | 0.37 µM | > 10 µM | 0.132 µM
14 | CCc1nn(CCO)c2c1C(c1ccc(Cl)cc1)N(c1cc(C)c(=O)n(C)c1)C2=O (stereo not drawn) [Example 78, 4-(4-chlorophenyl)-5-(1,5-dimethyl-6-oxo-1,6-dihydropyridin-3-yl)-3-ethyl-1-(2-hydroxyethyl)-4,5-dihydropyrrolo[3,4-c]pyrazol-6(1H)-one] | – | 79 nM | 3100 nM | 0.223 µM | > 10 µM | 0.0855 µM
15 | CCc1nn(CCO)c2c1C(c1ccc(Cl)cc1)N(c1cc(C)c3onc(C)c3c1)C2=O (stereo not drawn) [Example 79, 4-(4-chlorophenyl)-5-(3,7-dimethylbenzo[d]isoxazol-5-yl)-3-ethyl-1-(2-hydroxyethyl)-4,5-dihydropyrrolo[3,4-c]pyrazol-6(1H)-one] | – | 110 nM | 11000 nM | 0.461 µM | > 10 µM | 0.42 µM
16 | CCc1c2c(nn1CCO)C(=O)N(c1cc(C)c3onc(C)c3c1)C2c1ccc(Cl)cc1 (stereo not drawn) [Example 80, 4-(4-chlorophenyl)-5-(3,7-dimethylbenzo[d]isoxazol-5-yl)-3-ethyl-2-(2-hydroxyethyl)-4,5-dihydropyrrolo[3,4-c]pyrazol-6(2H)-one] | – | 59 nM | 5000 nM | 1.03 µM | > 10 µM | 0.472 µM
17 | Cc1nn(C2CC2)c2c1[C@@H](c1ccc(Cl)cc1)N(c1cc(C)c3nnc(C)n3n1)C2=O [Example 122, (R)-4-(4-chlorophenyl)-1-cyclopropyl-5-(3,8-dimethyl-[1,2,4]triazolo[4,3-b]-pyridazin-6-yl)-3-methyl-4,5-dihydropyrrolo[3,4-c]pyrazol-6(1H)-one] | – | – | > 37000 nM | 0.0107 µM | > 10 µM | 0.00842 µM
18 | CC(=O)Nc1cc(N2C(=O)c3c(c(C)nn3C3CC3)C2c2ccc(Cl)cc2)nn2c(C)nnc12 (stereo not drawn) [Example 126, N-(6-(4-(4-chlorophenyl)-1-cyclopropyl-3-methyl-6-oxopyrrolo[3,4-c]pyrazol-5-(1H,4H,6H)-yl)-3-methyl-[1,2,4]triazolo[4,3-b]pyridazin-8-yl)acetamide] | – | – | > 37000 nM | 1.15 µM | > 10 µM | 0.682 µM
19 | COCc1nn(C2CC2)c2c1C(c1ccc(Cl)cc1)N(c1cc(C)c3nnc(C)n3c1)C2=O (stereo not drawn) [Example 130, 4-(4-chlorophenyl)-1-cyclopropyl-5-(3,8-dimethyl-[1,2,4]triazolo[4,3-a]pyridin-6-yl)-3-(methoxymethyl)-4,5-dihydropyrrolo[3,4-c]pyrazol-6(1H)-one] | – | – | 19000 nM | 0.0813 µM | > 10 µM | 0.0267 µM
